US20250304549A1, “HYDROXYAMIDE DERIVATIVE AND USE THEREOF” (SICHUAN HUIYU PHARMACEUTICAL CO., LTD., priority 2022, published 2025)
Counter-ions that a name gives are not always drawn.

Legend:
LSD1 = LSD1 (Homo sapiens (Human), UniProt O60341); experiment: In vitro enzyme inhibition assay - LSD1 (HTRF); type: biochemical
pan-HDAC = experiment: In vitro enzyme inhibition assay - HDAC (HDAC-Glo I/II), pan-HDAC; type: biochemical
Summary of the method: (§1)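 Eight compound concentrations (5-fold steps from a 1 mM DMSO stock) tested against pan-HDAC, HDAC1 and HDAC8 with HDAC-Glo I/II reagents, luminescence read-out. Percent inhibition normalized to no-inhibitor and no-enzyme wells; IC50 derived by four-parameter logistic fit.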

HDAC8 = HDAC8 (Homo sapiens (Human), UniProt Q9BY41); experiment: In vitro enzyme inhibition assay - HDAC (HDAC-Glo I/II), HDAC8; type: biochemical; details: read-out: HDAC IC50 (nM) HDAC 8
Summary of the method: as §1

NCI-H1417 cells = experiment: In vitro cell inhibition assay - H1417 cell proliferation (CellTiter-Glo); type: cell-based; details: Homo sapiens, NCI-H1417, H1417 small cell lung cancer cell proliferation
Summary of the method: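 Cells exposed to 8 compound concentrations (5-fold dilutions) in BEGM with 10% FBS for 7 days at 37° C., 5% CO2. Viable cells measured by CellTiter-Glo luminescence; inhibition versus no-inhibitor and no-cell controls, IC50 fitted.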

NCI-H69 cells = experiment: In vitro cell inhibition assay - NCI-H69 cell proliferation (CellTiter-Glo); type: cell-based; details: Homo sapiens, NCI-H69, H69 small cell lung cancer cell proliferation
Summary of the method: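 Luminescence from CellTiter-Glo reagent served as the viability read-out after cells were exposed to compounds for 7 days at 37° C. Eight concentrations in a 5-fold series were tested in medium with 20% FBS. Inhibition was normalised to untreated and cell-free wells before IC50 fitting.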

DU145 cells = experiment: In vitro cell inhibition assay - DU145 cell proliferation (CellTiter-Glo); type: cell-based; details: Homo sapiens, DU-145, Du145 prostate cancer cell proliferation
Procedure: 5. In Vitro Cell Inhibition Assay—DU145 Cell Proliferation
The inhibitory effect of the compounds on cell proliferation was assessed by detecting the number of viable cells using the CellTiter-Glo® reagent. DU145 cells in the logarithmic growth phase were collected and inoculated into transparent bottom 96-well plates at a density 1×10^3 cells per well with 100 μL medium, and incubated at 37° C., 5% CO2 overnight. The compounds were sequentially diluted in a 5-fold concentration gradient with DMSO to obtain 8 different concentrations. These were then diluted with RPMI-640 (containing 10% FBS) cell culture medium to obtain the compound working solution (2×), which was added to the cell supernatant at 100 μL per well. The incubation continued for 6 days at 37° C., 5% CO2. The plate was then removed and equilibrated at room temperature (25° C.) along with the CellTiter-Glo® mixing reagent for 10-30 minutes. After centrifugation, 120 μL of the culture medium was carefully aspirated from each well, and 60 μL of CellTiter-Glo® reagent was added. The cells were thoroughly mixed with the CellTiter-Glo® mixing reagent using a microplate shaker for 2 min. and then incubated at room temperature for 10 min. The 96-well plate was subsequently placed on a multifunctional microplate reader to record the Luminescence values (RLU).
The inhibition rate was calculated using the following formula: […]
Note: ‘Negative’ refers to the group without inhibitors; ‘Blank’ refers to the group without cells.
The IC50 value was determined by fitting the inhibition rate by GraphPad Prism software.

Sequence of HDAC8 (Q9BY41 whole entry): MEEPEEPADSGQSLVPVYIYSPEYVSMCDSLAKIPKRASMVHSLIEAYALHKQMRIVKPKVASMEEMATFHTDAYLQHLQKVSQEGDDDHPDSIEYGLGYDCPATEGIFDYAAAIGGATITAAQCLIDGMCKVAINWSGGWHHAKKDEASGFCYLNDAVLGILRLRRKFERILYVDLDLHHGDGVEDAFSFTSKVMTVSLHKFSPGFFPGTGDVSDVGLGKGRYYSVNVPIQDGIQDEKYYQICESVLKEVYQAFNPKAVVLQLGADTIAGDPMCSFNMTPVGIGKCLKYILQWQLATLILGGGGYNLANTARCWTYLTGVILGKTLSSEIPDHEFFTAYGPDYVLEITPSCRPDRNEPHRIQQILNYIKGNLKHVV

Row | Compound | IC50 (LSD1) [nM] | IC50 (pan-HDAC) [nM] | IC50 (HDAC8) [nM] | IC50 (NCI-H1417 cells) [nM] | IC50 (NCI-H69 cells) [nM] | IC50 (DU145 cells) [nM]
1 | N#Cc1ccc(-c2c(-c3ccc4c(c3)OCO4)cnc(N3CCC(NCc4ccc(/C=C/C(=O)NO)cc4)CC3)c2C#N)cc1F [Example 103, (E)-3-(4-(((1-(5-(Benzo[d][1,3]dioxol-5-yl)-3-cyano-4-(4-cyano-3-fluorophenyl)pyridin-2-yl)piperidin-4-yl)amino)methyl)phenyl)-N-hydroxyacrylamide formate] | 14.2 | 62.3 | 159 | 43.3 | 83.6 | 254
2 | COc1ccc(-c2cnc(N3CCC(NCCCc4ccc(C(=O)NO)cc4)CC3)c(C#N)c2-c2ccc(C#N)c(F)c2)cc1O [Example 107, 4-(3-(3-Cyano-4-(4-cyano-3-fluorophenyl)-5-(3-hydroxy-4-methoxyphenyl)pyridin-2-yl)piperidin-4-yl)amino)propyl)-N-hydroxybenzamide formate] | 1.29 | 378 | 50.6 | 10.4 | 1040 | 2330
3 | COc1ccc(-c2cnc(N3CCC(NCc4ccc(C#CC(=O)NO)cc4)CC3)c(C#N)c2-c2ccc(C#N)c(F)c2)cc1O [Example 109, 3-(4-(1-(3-Cyano-4-(4-cyano-3-fluorophenyl)-5-(3-hydroxy-4-methoxyphenyl)pyridin-2-yl)piperidin-4-yl)amino)methyl) phenyl)-N-hydroxypropiolamide formate] | 4.19 | 657 | 391 | 2.76 | 411 | 3820
4 | COc1ccc(-c2cnc(N3CCC(NCCNc4ncc(C(=O)NO)cn4)CC3)c(C#N)c2-c2ccc(C#N)c(F)c2)cc1O [Example 115, 2-(2-(1-(3-Cyano-4-(4-cyano-3-fluorophenyl)-5-(3-hydroxy-4-methoxyphenyl)pyridin-2-yl)piperidin-4-yl)amino)ethyl) amino)-N-hydroxypyrimidine-5-carboxamide formate] | 0.16 | 20.6 | 37.1 | 2.25 | 3340 | 6340
5 | COc1ccc(-c2cnc(N3CCC(NCCc4ccc(CC(=O)NO)cc4)CC3)c(C#N)c2-c2ccc(C#N)c(F)c2)cc1O [Example 120, 2-(4-(2-((1-(3-Cyano-4-(4-cyano-3-fluorophenyl)-5-(3-hydroxy-4-methoxyphenyl)pyridin-2-yl)piperidin-4-yl)amino)ethyl)phenyl)-N-hydroxyacetamide formate] | 0.33 | 1310 | 1950 | 11.1 | 938 | 3770
6 | COc1ccc(-c2cnc(N3CCC(NCC4CCN(c5ccc(C(=O)NO)cc5)CC4)CC3)c(C#N)c2-c2ccc(C#N)c(F)c2)cc1O [Example 121, 4-(4-((1-(3-Cyano-4-(4-cyano-3-fluorophenyl)-5-(3-hydroxy-4-methoxyphenyl)pyridin-2-yl)piperidin-4-yl)amino)methyl) piperidin-1-yl)-N-hydroxybenzamide formate] | 0.35 | 404 | 17.2 | 15.6 | 127 | 2220
7 | COc1ccc(-c2cnc(N3CCC(NCCCc4ncc(C(=O)NO)s4)CC3)c(C#N)c2-c2ccc(C#N)c(F)c2)cc1O [Example 125, 2-(3-(3-Cyano-4-(4-cyano-3-fluorophenyl)-5-(3-hydroxy-4-methoxyphenyl)pyridin-2-yl)piperidin-4-yl)amino)propyl)-N-hydroxythiazole-5-carboxamide formate] | 0.74 | 226 | 23.4 | 12 | 1950 | 3040
8 | COc1ccc(-c2cnc(N3CCC(NCc4ccc(OCC(=O)NO)c(OC)c4)CC3)c(C#N)c2-c2ccc(C#N)c(F)c2)cc1O [Example 128, 2-(4-((1-(3-Cyano-4-(4-cyano-3-fluorophenyl)-5-(3-hydroxy-4-methoxyphenyl)pyridin-2-yl)piperidin-4-yl)amino)methyl)-2-methoxyphenoxy)-N-hydroxyacetamide formate] | 0.39 | 5 | 223 | 2.01 | 130 | 239
9 | COc1ccc(-c2cnc(N3CCC(NCc4ccc(/C=C/C(=O)NO)cc4OC)CC3)c(C#N)c2-c2ccc(C#N)c(F)c2)cc1O [Example 132, (E)-3-(4-(((1-(3-Cyano-4-(4-cyano-3-fluorophenyl)-5-(3-hydroxy-4-methoxyphenyl)pyridin-2-yl)piperidin-4-yl)amino)methyl)-3-methoxyphenyl)-N-hydroxyacrylamide formate] | 10.8 | 3.86 | 171 | 13.2 | 103 | 235
10 | COc1ccc(-c2cnc(N3CCC4(CC3)CN(Cc3ccc(/C=C/C(=O)NO)cc3)C4)c(C#N)c2-c2ccc(C#N)c(F)c2)cc1O [Example 138, (E)-3-(4-(((7-(3-Cyano-4-(4-cyano-3-fluorophenyl)-5-(3-hydroxy-4-methoxyphenyl)pyridin-2-yl)-2,7-diazaspiro[3.5]nonan-2-yl)methyl)phenyl)-N-hydroxyacrylamide formate] | 21.4 | 61 | 401 | 30.7 | 91.6 | 372

Second part, the molecule after the results:

Row | IC50 (LSD1) [nM] | IC50 (pan-HDAC) [nM] | IC50 (HDAC8) [nM] | IC50 (NCI-H1417 cells) [nM] | IC50 (NCI-H69 cells) [nM] | IC50 (DU145 cells) [nM] | Compound
11 | 160 | 394 | 480 | 707 | 528 | 2230 | COc1cc(-c2cnc(N3CCC(NCc4cccc(/C=C/C(=O)NO)c4)CC3)c(C#N)c2-c2ccc(C#N)c(F)c2)ccc1O [Example 98, (E)-3-(3-((1-(3-Cyano-4-(4-cyano-3-fluorophenyl)-5-(4-hydroxy-3-methoxyphenyl)pyridin-2-yl)piperidin-4-yl)amino)methyl) phenyl)-N-hydroxyacrylamide formate]
12 | 9.5 | 50.9 | 120 | 11.8 | 97.3 | 122 | COc1cc(-c2cnc(N3CCC(N(C)Cc4ccc(/C=C/C(=O)NO)cc4)CC3)c(C#N)c2-c2ccc(C#N)c(F)c2)ccc1O [Example 99, (E)-3-(4-(((1-(3-Cyano-4-(4-cyano-3-fluorophenyl)-5-(4-hydroxy-3-methoxyphenyl)pyridin-2-yl)piperidin-4-yl)(methyl)amino)methyl)phenyl)-N-hydroxyacrylamide formate]
13 | 49.5 | 35.5 | 36 | 118 | 104 | 313 | COc1cc(-c2cnc(N3CCC(NCc4ccc(/C=C/C(=O)NO)cc4)CC3)c(C#N)c2-c2ccc(C#N)c(F)c2)ccc1O [Example 100, (E)-3-(4-((1-(3-Cyano-4-(4-cyano-3-fluorophenyl)-5-(4-hydroxy-3-methoxyphenyl)pyridin-2-yl)piperidin-4-yl)amino)methyl) phenyl)-N-hydroxyacrylamide hydrochloride]
14 | 1.47 | 18.2 | 322 | 4.38 | 25.8 | 86.9 | N#Cc1ccc(-c2c(-c3ccc(C(F)(F)F)c(O)c3)cnc(N3CCC(NCc4ccc(/C=C/C(=O)NO)cc4)CC3)c2C#N)cc1F [Example 129, (E)-3-(4-(1-(3-Cyano-4-(4-cyano-3-fluorophenyl)-5-(3-hydroxy-4-(trifluoromethyl)phenyl)pyridin-2-yl)piperidin-4-yl)amino)methyl) phenyl)-N-hydroxyacrylamide formate]
15 | 17.2 | 10.4 | 77.7 | 29.1 | 93.7 | 364 | Cn1cnc2cc(-c3cnc(N4CCC(NCc5ccc(/C=C/C(=O)NO)cc5)CC4)c(C#N)c3-c3ccc(C#N)c(F)c3)ccc21 [Example 136, (E)-3-(4-(((1-(3-Cyano-4-(4-cyano-3-fluorophenyl)-5-(1-methyl-1H-benzo[d]imidazol-5-yl))pyridin-2-yl)piperidin-4-yl)amino)methyl) phenyl)-N-hydroxyacrylamide formate]
